Earlier results as cited in PMC10769797 (The Oncologist, 2023).

How the values were obtained:
[1] = tested on: patients with advanced solid tumors; details: phase I study; cited from earlier work
[2] = tested on: POLR2A expression; details: cited from earlier work

CC1(C)CC[C@H](Nc2ncc(C(F)(F)F)c(-c3c[nH]c4c(P(C)(C)=O)c(C#N)ccc34)n2)CN1 [SY-5609]
DLTs [1]: cytopenia, gastrointestinal toxicity, and hypotension
Most frequent TEAEs [1]: gastrointestinal toxicity, fatigue, thrombocytopenia, and anemia
POLR2A expression change compared with baseline ([2]; CDK7-target occupancy up to 100%): 4-5 fold
POLR2A expression change in PBMCs ([2]; at 75% CDK7-target occupancy): approximately 2.5 fold
